Experimental data from patent US12612410B2 (CHILDREN'S HOSPITAL MEDICAL CENTER, priority 2020, dated 2026).

Molecular target: T1, FLT3 ITD, D835V (Homo sapiens, UniProt P36888, D835V, form not given)
T1 construct: fused on or other part: DNA tag for qPCR detection (T7 phage fusion or DNA-tagged protein from HEK-293 cells)
T1 sequence (P36888 1-993 D835V): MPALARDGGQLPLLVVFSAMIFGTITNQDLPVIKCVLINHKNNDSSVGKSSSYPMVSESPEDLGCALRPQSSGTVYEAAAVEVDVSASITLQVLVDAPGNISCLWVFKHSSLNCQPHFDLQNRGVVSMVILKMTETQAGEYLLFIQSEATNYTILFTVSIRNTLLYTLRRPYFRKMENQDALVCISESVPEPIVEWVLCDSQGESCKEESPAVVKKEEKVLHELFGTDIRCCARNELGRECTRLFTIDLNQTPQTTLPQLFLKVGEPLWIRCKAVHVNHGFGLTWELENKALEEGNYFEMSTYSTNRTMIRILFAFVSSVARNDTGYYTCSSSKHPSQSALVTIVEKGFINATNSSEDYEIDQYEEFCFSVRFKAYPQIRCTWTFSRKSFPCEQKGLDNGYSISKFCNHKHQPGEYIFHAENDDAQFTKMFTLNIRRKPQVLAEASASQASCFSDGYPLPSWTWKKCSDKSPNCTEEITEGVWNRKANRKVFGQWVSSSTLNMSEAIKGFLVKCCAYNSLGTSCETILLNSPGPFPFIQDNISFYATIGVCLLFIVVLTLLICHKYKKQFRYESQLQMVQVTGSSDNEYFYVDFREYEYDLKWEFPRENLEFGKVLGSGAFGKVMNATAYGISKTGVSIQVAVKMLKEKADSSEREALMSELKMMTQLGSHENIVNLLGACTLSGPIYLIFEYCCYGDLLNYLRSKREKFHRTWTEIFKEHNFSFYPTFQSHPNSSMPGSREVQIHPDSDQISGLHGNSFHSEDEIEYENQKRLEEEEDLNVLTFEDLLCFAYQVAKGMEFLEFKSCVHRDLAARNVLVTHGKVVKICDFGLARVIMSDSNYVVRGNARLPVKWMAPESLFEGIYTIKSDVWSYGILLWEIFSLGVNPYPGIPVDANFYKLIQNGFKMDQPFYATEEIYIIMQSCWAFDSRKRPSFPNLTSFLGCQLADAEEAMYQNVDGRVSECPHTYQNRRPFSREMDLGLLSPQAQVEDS
Experiment: DiscoverX KINOMEscan competition binding, FLT3 ITD, D835V
Text: Kinase binding data were obtained for various exemplary compounds prepared according to Examples 1-24 using the DiscoverX KINOMVIEscan® active site-directed competition binding site-directed assay protocol described below. […] As a result, the data report thermodynamic interaction affinities (Kd values), rather than IC50 values that are dependent on ATP concentrations. The assay uses a DNA-tagged version of the protein kinase, and an immobilized ligand bound to a solid support. Compounds that directly or indirectly prevent kinase binding to the immobilized ligand reduce the amount of kinase captured on the solid support, which is detected using an ultra-sensitive qPCR method. Affinity constants reported from the assay have been reported to be independent of the immobilized ligand used that is coupled to the solid support (See supplemental information in Fabian, M. A. et. al., (2005) Nat. Biotechnol. 23, 329-336; Wodicka, L. M. et. al., (2010) Chem. Biol. 17, 1241-1249.)
Kinase-tagged T7 phage strains were prepared in an E. coli host derived from the BL21 strain. E. coli were grown to log-phase and infected with T7 phage and incubated with shaking at 32° C. until lysis. The lysates were centrifuged and filtered to remove cell debris. The remaining kinases were produced in HEK-293 cells and subsequently tagged with DNA for qPCR detection. Streptavidin-coated magnetic beads were treated with biotinylated small molecule ligands for 30 minutes at room temperature to generate affinity resins for kinase assays. The liganded beads were blocked with excess biotin and washed with blocking buffer (SeaBlock (Pierce), 1% BSA, 0.05% Tween 20, 1 mM DTT) to remove unbound ligand and to reduce non-specific binding. Binding reactions were assembled by combining kinases, liganded affinity beads, and test compounds in 1× binding buffer (20% SeaBlock, 0.17×PBS, 0.05% Tween 20, 6 mM DTT). Test compounds were prepared as 111× stocks in 100% DMSO. Kds were determined using an 11-point 3-fold compound dilution series with three DMSO control points. All compounds for Kd measurements are distributed by acoustic transfer (non-contact dispensing) in 100% DMSO. The compounds were then diluted directly into the assays such that the final concentration of DMSO was 0.9%. All reactions were performed in polypropylene 384-well plates. Each was a final volume of 0.02 mL. The assay plates were incubated at room temperature with shaking for 1 hour and the affinity beads were washed with wash buffer (1×PBS, 0.05% Tween 20). The beads were then re-suspended in elution buffer (1×PBS, 0.05% Tween 20, 0.5 μM nonbiotinylated affinity ligand) and incubated at room temperature with shaking for 30 minutes. The kinase concentration in the eluates was measured by qPCR.
Binding constants (Kds) were calculated with a standard dose-response curve using the Hill equation. The Hill Slope was set to −1. Curves were fitted using a non-linear least square fit with the Levenberg-Marquardt algorithm.

| SMILES | Kd [pM] |
| --- | --- |
| FC(F)(F)C1(c2cn3c(-c4cccc(N[C@@H]5CCNC5)n4)cnc3cn2)CC1 [Compound 10, (R)-N-(pyrrolidin-3-yl)-6-(6-(1-(trifluoromethyl)cyclopropyl)imidazo[1,2-a]pyrazin-3-yl)pyridin-2-amine] | 11 |
| FC(F)(F)COc1cn2c(-c3cccc(N[C@@H]4CCNC4)n3)cnc2cn1 [Compound 38, (R)-N-(pyrrolidin-3-yl)-6-(6-(2,2,2-trifluoroethoxy)imidazo[1,2-a]pyrazin-3-yl)pyridin-2-amine] | 26 |
| CC(C)(O)c1cn2c(-c3cccc(N[C@H]4CNCC[C@@H]4F)n3)cnc2cn1 [Compound 31, 2-(3-(6-(((3S,4S)-4-fluoropiperidin-3-yl)amino)pyridin-2-yl)imidazo[1,2-a]pyrazin-6-yl)propan-2-ol] | 44 |
| FC(F)c1cn2c(-c3cccc(N[C@H]4CNCC[C@@H]4F)n3)cnc2cn1 [Compound 25, 6-(6-(difluoromethyl)imidazo[1,2-a]pyrazin-3-yl)-N-((3S,4S)-4-fluoropiperidin-3-yl)pyridin-2-amine] | 9 |
| CC(C)(O)c1cn2c(-c3cccc(N[C@@H]4CCCNC4)n3)cnc2cn1 [Compound 30, (R)-2-(3-(6-(piperidin-3-ylamino)pyridin-2-yl)imidazo[1,2-a]pyrazin-6-yl)propan-2-ol] | 140 |

These reach a lower Kd. Values come first.

| Kd [pM] | SMILES |
| --- | --- |
| 3 | CC1(c2cn3c(-c4cccc(N[C@H]5CNC[C@@H]5F)n4)cnc3cn2)CC1 [Compound 1, N-((3S,4S)-4-fluoropyrrolidin-3-yl)-6-(6-(1-methylcyclopropyl)imidazo[1,2-a]pyrazin-3-yl)pyridin-2-amine] |
| 6 | FC(F)c1cn2c(-c3cccc(N[C@H]4CNC[C@@H]4F)n3)cnc2cn1 [Compound 16, 6-(6-(difluoromethyl)imidazo[1,2-a]pyrazin-3-yl)-N-((3S,4S)-4-fluoropyrrolidin-3-yl)pyridin-2-amine] |
| 3 | F[C@H]1CNC[C@@H]1Nc1cccc(-c2cnc3cnc(C4CC4)cn23)n1 [Compound 50, 6-(6-cyclopropylimidazo[1,2-a]pyrazin-3-yl)-N-((3S,4S)-4-fluoropyrrolidin-3-yl)pyridin-2-amine] |
| 5 | CC1(c2cn3c(-c4cccc(N[C@H]5CNCC56CC6)n4)cnc3cn2)CC1 [Compound 5, (R)-N-(6-(6-(1-methylcyclopropyl)imidazo[1,2-a]pyrazin-3-yl)pyridin-2-yl)-5-azaspiro[2.4]heptan-7-amine] |
| 4 | CC1(c2cn3c(-c4cccc(N[C@@H]5CCNC5)n4)cnc3cn2)CC1 [Compound 3, (R)-6-(6-(1-methylcyclopropyl)imidazo[1,2-a]pyrazin-3-yl)-N-(pyrrolidin-3-yl)pyridin-2-amine] |
| 3 | Cn1cc(-c2cn3c(-c4cccc(N[C@H]5CNC[C@@H]5F)n4)cnc3cn2)cn1 [Compound 52, N-((3S,4S)-4-fluoropyrrolidin-3-yl)-6-(6-(1-methyl-1H-pyrazol-4-yl)imidazo[1,2-a]pyrazin-3-yl)pyridin-2-amine] |
